Consider one compound from patent US5496703A, “Indirect immunoassay for dioxinlike compounds” (priority 1993, dated 1996).

Data set [1] relates to AHH and delta-ALA (delta-aminolaevulinic acid) synthetase. Particulars: versus other inducers, such as 3-methyl-cholanthrene; cited from earlier work.
In data set [2] the test system is DBA/2 strain. Particulars: DBA/2 mouse; cited from earlier work.
Data set [3] has as its system total cell lysate protein tyrosylphosphorylation in X3 human lymphoblastoma cells. Kind of data set: ELISA with antiphosphotyrosine monoclonal antibody, X3 cell lysate. Format: cell-based. Particulars: 16 hours. The procedure:
The X3 human lymphoblastoma cells (Genetest, Wolburn, Mass.) were grown in 75 cm^2 T-flasks in RPMI 1640 medium (Gibco) containing 9% horse serum. Any cell or cell line expressing cytochrome P-450IA1 may be used. The cells were cultured at 37° C. in a 5% CO2 (balance air) environment. Cells were subcultured by centrifuging (1000 rpm, 3 minutes) and resuspended in fresh media to a volume of 50 mL (at a cell density of 1.0×10^6 cells/mL). The TCDD-corn oil solution was homogenized with serum to a final concentration of 0.10 μg/mL. The TCDD-serum was added at concentrations of 0, 0.02, 0.05, 0.1, 0.5 and 1.0 nM per flask and incubated for 16 hours. After the appropriate incubation time, the cells were harvested by centrifugation and washed three times (PBS, […]). A final cell count was then determined.
ELISA were performed with 96-well microtiter plates precoated with antigen. X3 cell lysate was used as antigen and was prepared as a series of geometric dilutions ranging from 0.4 to 500 μg protein/mL PBS. One-tenth mL from each dilution was promptly pipetted into the wells of the microtiter plate in quadruplicate. […] Peroxidase activity was determined after incubation with substrate (0.03% H2 O2 and 1 mM 2,2'-azinodi(d-ethyl-benzthiazoline sulfonic acid-6) dissolved in 100 mM sodium citrate (pH 4.2) at 22° C. At the first visualization of color change A415 values were recorded.

The test system of data set [4] is cytochrome P-450IA1. As to the kind of experiment: Ethoxyresorufin O-deethylase assay (EROD), hepatic S-9, mice dosed i.p. Format: in vivo, C57BL/6 mice. Particulars: hepatic S-9, i.p., 24 hours after dosing. The procedure: Female, C57BL/6 mice (or any cytochrome P-450IA1 inducible strain) were obtained from Harton Sprague Dawley (Indianapolis, Ind.). Experiments were performed using four to six week old, female mice weighing approximately 16 to 20 g. Mice were fed Prolab RMH 1000 rat, mouse and hamster food (Agway, Cortland, N.Y.) and received tap water ad libitum. All mice were housed three to five per cage and maintained on a photoperiod of 12 hours. Mice were killed 24 hours following an intraperitoneal injection of either corn oil alone or TCDD (Analabs) at 0.25, 0.5, 1, 2, 4, 10, 50 μg/kg, the volume of the injections ranged from 0.1 to 0.2 ml per mouse. […]
Resorufin (hydroxyphenoxazone) and ethoxyresorufin was purchased from Molecular Probes (Junction City, Oreg.). EROD was measured by following the increase in fluorescence due to the formation of resorufin by dealkylation of its ethoxy derivative. […] A baseline of fluorescence was recorded at an excitation wavelength of 530 nm and an emission wavelength of 585 nm. The reaction was started with the addition of NADPH and the dealkylation of the derivative to resorufin was followed by a progressive increase in fluorescence as resorufin was generated. Recordings were standardized by measuring the fluorescence of freshly generated resorufin from resorufin acetate (Sigma, St. Louis, Mo.) prior to each assay. […]

The target in data set [5] is Ah receptor. Particulars: cited from earlier work.
In data set [6] the test system is phospholipase C. Particulars: certain cell lines; cited from earlier work.

On to `Clc1cc2c(cc1Cl)Oc1cc(Cl)c(Cl)cc1O2` [TCDD, 2,3,7,8-tetrachlorodibenzo-p-dioxin], for which, in data set [1], the “potency in induction of AHH and delta-ALA synthetase” value is “orders of magnitude more potent”. In addition, the “susceptibility to TCDD toxicity” value in data set [2] is “relatively resistant”. Besides, the “concentration of maximal total protein tyrosylphosphorylation” value in data set [3] came out at 1 nM. The compound further registered an EC50 in data set [3] (Homo sapiens) of 0.13 nM. Moreover, in data set [4], the “ED50, cytochrome P-450IA1 expression (EROD)” value is 5 μg TCDD/kg and the “dose of maximal EROD activity” value was determined as 50 μg TCDD/kg. Also, the “equilibrium dissociation constant (Kd), earlier Scatchard analysis” value in data set [5] (almost all Ah receptors studied) is listed as “nM range”. In addition, in data set [5], the “Kd, newer experimental approaches” value is on record as “pM range” and the “binding affinity to Ah receptor” value was “binds most strongly”. Moreover, the “phospholipase C activation” value in data set [6] is recorded as “activates protein kinase C in certain cell lines but also phospholipase C”.
